Data on 22 compounds can be found in patent publication US9221784B2, “Benzo[1,3]dioxine derivatives and their use as LPAR5 antagonists” (SANOFI, priority 2012, dated 2015).

T1 sequence (Q9H1C0 whole entry): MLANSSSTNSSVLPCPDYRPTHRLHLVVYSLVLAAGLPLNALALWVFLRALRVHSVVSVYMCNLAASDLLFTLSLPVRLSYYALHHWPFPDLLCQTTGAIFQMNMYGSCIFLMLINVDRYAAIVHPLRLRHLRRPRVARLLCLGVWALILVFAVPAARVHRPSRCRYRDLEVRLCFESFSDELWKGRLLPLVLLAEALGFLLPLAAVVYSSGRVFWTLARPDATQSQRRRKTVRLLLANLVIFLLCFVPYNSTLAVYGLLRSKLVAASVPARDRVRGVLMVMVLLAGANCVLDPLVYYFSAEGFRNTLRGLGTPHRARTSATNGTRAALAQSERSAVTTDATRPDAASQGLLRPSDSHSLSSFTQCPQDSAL

One assay concerns the target T1, LPA receptor LPAR5 (Homo sapiens, UniProt Q9H1C0). As to the kind of experiment: Aggregation assay for washed human blood platelets (LPA-induced). In kind it is cell-based. The note with it: reduction of the maximal aggregation, 5 minutes incubation at 37° C. Here is the method: A) Aggregation Assay for Washed Human Blood Platelets (Thrombocytes)
Whole blood was collected from healthy volunteers using 3×20 ml syringes containing each 1/10 volume of buffered citrate. The anticoagulated whole blood was transferred into 50 ml polypropylene conical tubes (30 ml per tube). The tubes were centrifuged for 10 minutes at 150×g at room temperature without using the centrifuge brake. This procedure results in a lower phase of cellular components and a supernatant (upper phase) of platelet rich plasma (PRP). The PRP phase was collected from each tube and pooled for each donor. To avoid carry over of cellular components following first centrifugation, approximately 5 ml of PRP was left in the tube. The platelet concentration was determined using a ABX Micros 60 counter. The PRP phase was transferred to a new 50 ml tube. After 10 minutes standing at room temperature, 1 μl PGI2 (1 mM in Tris-HCl/pH 8.8) and 180 μl ACD/A were added per ml PRP. The PRP was then transferred to new 10 ml tube and centrifuged for 10 minutes at 500×g. After centrifugation a cellular pellet is visible at the bottom of the tube. The supernatant was carefully discarded and the cellular pellet, consisting of human blood platelets was then dissolved in 10 ml buffer T (buffer T composition: 145 mM NaCl, 5 mM KCl, 0.1 mM MgCl2×6 H2O, 15 mM HEPES, 5.5 mM glucose, pH 7.4). Platelet concentration in this solution was determined and buffer T was added to obtain a final concentration of 3.5×10^5 platelets per ml.
After 10 minutes at room temperature, 1 μl PGI2 per ml platelet solution was added and distributed into new 10 ml tubes. After a centrifugation step, 10 minutes at 500×g, supernatant was discarded and the platelets were resuspended in buffer T to a final concentration of 3.5×10^5 platelets per ml buffer T. Before use, platelet-containing buffer equilibrated for 30 minutes at room temperature. The human platelet aggregation assay was performed in single use cuvettes using the Platelet Aggregation Profiler® (PAP-4 or -8E, BIO/DATA Corporation). For a single experiment, 320 μl of platelet solution were transferred into an assay cuvette, 20 μl of calcium citrate solution (10 mM in H2O) and 20 μl of fibrinogen solution (20 mg/ml H2O) were added. The aggregation assay was performed in the assay cuvette at 37° C. and with 1.200 rpm stirring. To determine the EC50, eight assay cuvettes were loaded as described above with different concentrations of LPA. Aggregation was measured over 6 minutes at 37° C. with 1200 rpm (revolutions per minute) stirring. Results of the assay are expressed as % activation, and are calculated using maximum aggregation (Tmax) or area under curve (AUC) of the absorbance over 6 minutes. The inhibitory effect (IC50) of the test compounds was determined as the reduction of the maximal aggregation. Test compound was added prior starting the experiment with an incubation time of the test compound of 5 minutes at 37° C. with 1200 rpm stirring. The IC50 data of the above described platelet aggregation assay using human washed platelets for exemplary compounds of the present invention are shown in Table 1.
As for `CCOc1cccc2c1C(C1CCCCC1)(C1CCCCC1)OC(C(=O)O)O2` (centres unmarked) [Example 30, 4,4-Dicyclohexyl-5-ethoxy-4H-benzo[1,3]dioxine-2-carboxylic acid], the IC50 (commonly the point on the concentration scale where inhibition reaches its midpoint) worked out at 5.9 µM. That is a single-digit micromolar value. Same read-out and setting: in the case of `COc1cc(C)c2c(c1)OC(C(=O)O)OC2(C1CCCCC1)C1CCCCC1` (centres unmarked) [Example 36, 4,4-Dicyclohexyl-7-methoxy-5-methyl-4H-benzo[1,3]dioxine-2-carboxylic acid] it was 2.4 µM; in that of `O=C(O)C1Oc2cc(OCc3ccccc3)ccc2C(C2CCCCC2)(C2CCCCC2)O1` (centres unmarked) [Example 37, 7-Benzyloxy-4,4-dicyclohexyl-4H-benzo[1,3]dioxine-2-carboxylic acid], 11.3 µM.

`O=C(O)C1Oc2c(OC(F)(F)F)cccc2C(C2CCCCC2)(C2CCCCC2)O1` (centres unmarked) [Example 46, 4,4-Dicyclohexyl-8-trifluoromethoxy-4H-benzo[1,3]dioxine-2-carboxylic acid] had an IC50 of 5.4 µM. Same read-out and setting: in the case of `CCN(CC)c1ccc2c(c1)OC(C(=O)O)OC2(C1CCCCC1)C1CCCCC1` (centres unmarked) [Example 49, 4,4-Dicyclohexyl-7-diethylamino-4H-benzo[1,3]dioxine-2-carboxylic acid] it was 2.7 µM.

For the next assay, the target named is T2, LPA receptor LPAR5 (Mus musculus, UniProt Q149R9).
T2 construct: two cell lines were used with high LPAR5 expression; endogenous in cells; host or cells: BV-2 murine microglia cell line
T2 sequence (Q149R9 whole entry): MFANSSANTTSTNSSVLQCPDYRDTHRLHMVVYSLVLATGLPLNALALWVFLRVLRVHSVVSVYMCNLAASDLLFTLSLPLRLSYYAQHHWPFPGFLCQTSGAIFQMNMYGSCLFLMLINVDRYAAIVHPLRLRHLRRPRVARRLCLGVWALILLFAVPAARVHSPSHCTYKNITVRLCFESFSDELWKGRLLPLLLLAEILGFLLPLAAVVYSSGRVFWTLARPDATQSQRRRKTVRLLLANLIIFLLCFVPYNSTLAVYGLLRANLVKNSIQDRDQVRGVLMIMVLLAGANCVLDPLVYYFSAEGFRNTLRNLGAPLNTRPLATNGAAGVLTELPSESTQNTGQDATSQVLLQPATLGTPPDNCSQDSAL
As to the kind of experiment: FLIPR assay, intracellular Ca2+ release in murine microglia cell line BV-2. In kind it is cell-based. The note with it: murine microglia cell line BV-2, LPA-stimulated Ca2+ release, test compounds added 10 minutes prior LPA. An excerpt:
(§1) B) Use of the Fluorometric Imaging Plate Reader (FLIPR) Assay for the Determination of Intracellular Ca^2+ Release in Human Mast Cell Line HMC-1 and the Murine Microglia Cell Line BV-2
(§2) The ability of the compounds of the formula I to inhibit or bind the LPA receptor LPAR5 can be assessed by determining the intracellular Ca^2+ release in human or animal cells. For the analysis of activating potential of LPA and the inhibitory effects of compounds of the formula I two cell lines were used with high LPAR5 expression, the human mast cell line HMC-1 and the murine microglia cell line BV-2 (Figures 1 and 2). For the FLIPR assay using human mast cells in a 96-well-format, HMC-1 suspension cells from flask culture were harvested, resuspended and counted. 14×10^6 HMC-1 cells were transferred into a new 50 ml tube, centrifuged for 3 minutes at 540×g. The resulting cell pellet at the bottom of the tube was resuspended with 15 ml loading buffer (loading buffer contained HBSS buffer (pH 7.4), 0.1% BSA (bovine serum albumin), 2 μM FLUO-4 dye; HBSS buffer (pH 7.4) contained 1×HBSS, 20 mM HEPES, 0.01% Pluronic F-127, 2.5 mM Probenicid).
Cells in loading buffer were incubated for 45-60 minutes at 37° C. After incubation cells were centrifuged for 3 minutes at 540×g and resuspended with 21 ml of HBSS buffer (pH 7.4). Each well of a poly-D-lysine coated 96-well-plate was filled with 150 μl cell solution, an equivalent of 100 000 cells/well. The 96-well-plate was centrifuged for 2 minutes at 100×g (without brake) prior a recovery time of 30 minutes at 37° C. After this procedure cells were stimulated with LPA (in HBSS pH 7.4 and 0.1% BSA) to determine the EC50 of LPA in HMC-1 cells. For the determination of the inhibitory effect of compounds of the formula I, test compounds were added to the cells in the 96-well-plate 10 minutes prior the addition of LPA. Results of the assay are expressed as % activation, and are calculated using maximum peak of activation (Amax). […]
On to `Cc1cccc2c1OC(C(=O)O)OC2(C1CCCCC1)C1CCCCC1` (centres unmarked) [Example 12, 4,4-Dicyclohexyl-8-methyl-4H-benzo[1,3]dioxine-2-carboxylic acid], for which it took 8 µM to reach half-maximal inhibition (IC50). In turn, `O=C(O)C1Oc2ccc(OC(F)(F)F)cc2C(C2CCCCC2)(C2CCCCC2)O1` (centres unmarked) [Example 18, 4,4-Dicyclohexyl-6-trifluoromethoxy-4H-benzo[1,3]dioxine-2-carboxylic acid] registered an IC50 of 1.5 µM.

The target of the next assay is T1, LPA receptor LPAR5. As to the kind of experiment: FLIPR assay, intracellular Ca2+ release in human mast cell line HMC-1. The arrangement: two cell lines were used with high LPAR5 expression; endogenous in cells; host or cells: HMC-1 human mast cell line. The note with it: human mast cell line HMC-1, LPA-stimulated Ca2+ release, test compounds added 10 minutes prior LPA. In kind it is cell-based.
Source text: as §1, §2
Cells in loading buffer were incubated for 45-60 minutes at 37° C. After incubation cells were centrifuged for 3 minutes at 540×g and resuspended with 21 ml of HBSS buffer (pH 7.4). Each well of a poly-D-lysine coated 96-well-plate was filled with 150 μl cell solution, an equivalent of 100 000 cells/well. The 96-well-plate was centrifuged for 2 minutes at 100×g (without brake) prior a recovery time of 30 minutes at 37° C. After this procedure cells were stimulated with LPA (in HBSS pH 7.4 and 0.1% BSA) to determine the EC50 of LPA in HMC-1 cells. For the determination of the inhibitory effect of compounds of the formula I, test compounds were added to the cells in the 96-well-plate 10 minutes prior the addition of LPA. Results of the assay are expressed as % activation, and are calculated using maximum peak of activation (Amax). The IC50 data of the above described FLIPR assay using human mast cell line HMC-1 for exemplary compounds of the present invention are shown in Table 2. Adherent BV-2 cells were seeded onto poly-D-lysine coated 96-well-plates (100000 cells/well) the day before performing the FLIPR assay. The density of the cells in the 96-well-plate at the day of the FLIPR assay should be 90%. After aspiration of the culture media, BV-2 cells were incubated for 30 minutes at 37° C. with loading buffer and recovered in 150 μl HBSS buffer for 30 minutes at 37° C. After this procedure cells were stimulated with LPA (in HBSS pH 7.4 and 0.1% BSA) to determine the EC50 of LPA in BV-2 cells. For the determination of the inhibitory effect of compounds of the formula I, test compounds were added to the cells in the 96-well-plate 10 minutes prior the addition of LPA. The IC50 data of the above described FLIPR assay using the murine microglia cell line BV-2 for exemplary compounds of the present invention are shown in Table 3.
`O=C(O)C1Oc2cc(-n3cccc3)ccc2C(C2CCCCC2)(C2CCCCC2)O1` (centres unmarked) [Example 2, 4,4-Dicyclohexyl-7-pyrrol-1-yl-4H-benzo[1,3]dioxine-2-carboxylic acid] registered an IC50 of 3.4 µM. Still for that read-out and setting: the figure for `COc1cc(OC)c2c(c1)OC(C(=O)O)OC2(C1CCCCC1)C1CCCCC1` (centres unmarked) [Example 7, 4,4-Dicyclohexyl-5,7-dimethoxy-4H-benzo[1,3]dioxine-2-carboxylic acid] is 4.4 µM; for `O=C(O)C1Oc2ccc(OC(F)(F)F)cc2C(C2CCCCC2)(C2CCCCC2)O1` (centres unmarked) [Example 18, 4,4-Dicyclohexyl-6-trifluoromethoxy-4H-benzo[1,3]dioxine-2-carboxylic acid] it is 1.5 µM. On the same count and under the same terms, in the case of `O=C(O)C1Oc2ccc(Oc3ccc(Cl)cc3)cc2C(C2CCCCC2)(C2CCCCC2)O1` (centres unmarked) [Example 22, 6-(4-Chloro-phenoxy)-4,4-dicyclohexyl-4H-benzo[1,3]dioxine-2-carboxylic acid] it was 2.6 µM; in that of `O=C(c1ccc(Cl)cc1)c1ccc2c(c1)C(C1CCCCC1)(C1CCCCC1)OC(C(=O)O)O2` (centres unmarked) [Example 26, 6-(4-Chloro-benzoyl)-4,4-dicyclohexyl-4H-benzo[1,3]dioxine-2-carboxylic acid], 3.4 µM. In the case of `CCCCOc1ccc2c(c1)OC(C(=O)O)OC2(C1CCCCC1)C1CCCCC1` (centres unmarked) [Example 31, 7-Butoxy-4,4-dicyclohexyl-4H-benzo[1,3]dioxine-2-carboxylic acid], the IC50 turned out to be 5.2 µM. In the case of `O=C(O)C1Oc2c(Cl)cc(Cl)cc2C(C2CCCCC2)(C2CCCCC2)O1` (centres unmarked) [Example 32, 6,8-Dichloro-4,4-dicyclohexyl-4H-benzo[1,3]dioxine-2-carboxylic acid], the IC50 was found to be 3.5 µM. The same measure, in the same setting: in the case of `O=C(O)C1Oc2ccc3ccccc3c2C(C2CCCCC2)(C2CCCCC2)O1` (centres unmarked) [Example 33, 1,1-Dicyclohexyl-1H-naphtho[2,1-d][1,3]dioxine-3-carboxylic acid] it was 3.3 µM. The same measure, in the same setting: in the case of `O=C(O)C1Oc2ccc(-c3ccccc3)cc2C(C2CCCCC2)(C2CCCCC2)O1` (centres unmarked) [Example 35, 4,4-Dicyclohexyl-6-phenyl-4H-benzo[1,3]dioxine-2-carboxylic acid] it was 3.8 µM; in that of `O=C(O)C1Oc2cc(OCc3ccccc3)ccc2C(C2CCCCC2)(C2CCCCC2)O1` (centres unmarked) [Example 37, 7-Benzyloxy-4,4-dicyclohexyl-4H-benzo[1,3]dioxine-2-carboxylic acid], 3.6 µM; in that of `Cc1cc2c(cc1Cl)C(C1CCCCC1)(C1CCCCC1)OC(C(=O)O)O2` (centres unmarked) [Example 43, 6-Chloro-4,4-dicyclohexyl-7-methyl-4H-benzo[1,3]dioxine-2-carboxylic acid], 3.3 µM. The same measure, in the same setting: in the case of `O=C(O)C1Oc2ccc3c(c2C(C2CCCCC2)(C2CCCCC2)O1)CCCC3` (centres unmarked) [Example 45, 1,1-Dicyclohexyl-7,8,9,10-tetrahydro-1H-naphtho[2,1-d][1,3]dioxine-3-carboxylic acid] it was 3.1 µM; in that of `O=C(O)C1Oc2c(OC(F)(F)F)cccc2C(C2CCCCC2)(C2CCCCC2)O1` (centres unmarked) [Example 46, 4,4-Dicyclohexyl-8-trifluoromethoxy-4H-benzo[1,3]dioxine-2-carboxylic acid], 3.2 µM; in that of `CCN(CC)c1ccc2c(c1)OC(C(=O)O)OC2(C1CCCCC1)C1CCCCC1` (centres unmarked) [Example 49, 4,4-Dicyclohexyl-7-diethylamino-4H-benzo[1,3]dioxine-2-carboxylic acid], 3.6 µM.

Compound `O=C(O)C1Oc2ccc(Br)cc2C(C2CCCCC2)(C2CCCCC2)O1` (centres unmarked) [Example 50, 6-Bromo-4,4-dicyclohexyl-4H-benzo[1,3]dioxine-2-carboxylic acid] yielded an IC50 of 2.5 µM.

Compound `O=C(O)C1Oc2ccc(Cl)cc2C(C2CCCCCC2)(C2CCCCCC2)O1` (centres unmarked) [Example 55, 6-Chloro-4,4-dicycloheptyl-4H-benzo[1,3]dioxine-2-carboxylic acid] had an IC50 of 2.4 µM. The compound `Clc1ccc2c(c1)C(C1CCCCC1)(C1CCCCC1)OC(c1nnn[nH]1)O2` (centres unmarked) [Example 60, 5-(6-Chloro-4,4-dicyclohexyl-4H-benzo[1,3]dioxin-2-yl)-1H-tetrazole] registered an IC50 of 3.6 µM. Same read-out and setting: in the case of `O=c1[nH]c(C2Oc3ccc(Cl)cc3C(C3CCCCC3)(C3CCCCC3)O2)no1` (centres unmarked) [Example 61, 3-(6-Chloro-4,4-dicyclohexyl-4H-benzo[1,3]dioxin-2-yl)-4H-[1,2,4]oxadiazol-5-one] it was 3.2 µM. Still for that read-out and setting: the figure for `O=c1[nH]nc(C2Oc3ccc(Cl)cc3C(C3CCCCC3)(C3CCCCC3)O2)o1` (centres unmarked) [Example 63, 5-(6-Chloro-4,4-dicyclohexyl-4H-benzo[1,3]dioxin-2-yl)-3H-[1,3,4]oxadiazol-2-one] is 7.7 µM.
